Data taken from US9896423B2, “Deuterium substituted 1-[2-(2,4-dimethyl-phenylsulfanyl)-phenyl]piperazine compound or derivatives thereof, and pharmaceutical composition and use thereof” (Jiangsu Jibeier Pharmaceutical Co. Ltd., priority 2014, dated 2018).
Counter-ions that a name gives are not always drawn.

How the values were obtained:
Male ICR mice [1] = experiment: Mice swimming test; format: in vivo
Excerpt: (§1) The following method is used for testing the antidepression effect of the compound of the present application. ICR mice or SD rats, gavaged for two successive weeks, were subjected to mice swimming test, mice tail suspension test and rats swimming test. See below for details of the tests and results.
Male ICR mice weighing 18 g to 20 g were used. They were fed on sterilized standard feed.
The compound administered in the test was 1-{2-[2,4-bis(trideuteriomethyl)phenylsulfanyl]phenyl}piperazine hydrobromic acid salt (XX for short). Vortioxetine (YY for short) was used as a control sample. Venlafaxine HCl (from Wyeth, USA) was used as a positive control.
Vortioxetine (15 mg) was combined with 10% hydroxypropyl-β-cyclodextrin to form a solution of 100 mL and was administered at daily dose of 3 mg/kg. 1-{2-[2,4-bis(trideuteriomethyl)phenylsulfanyl]phenyl}piperazine hydrobromic acid salt (15 mg and 7.5 mg) was combined with 10% hydroxypropyl-β-cyclodextrin to form two solutions of 100 mL and was administered at daily doses of 3 mg/kg and 1.5 mg/kg, respectively. Venlafaxine HCl (75 mg) was combined with 0.5% CMC-Na to form a solution of 100 mL and was administered at daily dose of […].
A recording and analysis system for small-animal behavior (Noldus) was used.
All the eighty mice were subjected to prescreening one day before the administration. The mice, fasted for 4 hours were put in a round glass tank (ø 14 cm×h 20 cm, with water of 10 cm depth and at a temperature of 25° C.) to swim. […] The whole swimming course was recorded by the video and the data were collected and analyzed automatically by Noldus software.
The forty qualified mice were divided into 4 groups, each of which had 10 mice, according to the Excel random grouping.
The medicaments were administered to each group by gavage with the amount of 0.2 ml per 10 g of body weight, once a day for 14 successive days. One hour later after the last oral administration, the mice were allowed to swim for 6 min. The video recorded the whole swimming course, and the Noldus software automatically collected and analyzed the data.
The data was given as “average±standard deviation” (x±s). One-way analysis of variance (one-way ANOVA) was used for data difference statistics. Differences among the groups were determined by P<0.05.

Male ICR mice [2] = experiment: Mice tail suspension test; format: in vivo
Excerpt: as §1
The animals, medicaments, calculation of dosages to the mice, preparation of drug solution and apparatus are the same as those in the mice swimming test.
The medicaments were correspondingly administered by gavage, once a day, to the animals in the groups for 14 successive days, with the amount of 0.2 ml per 10 g of body weight. The mice were subjected to tail suspension one hour later after the last oral administration. The suspension continued for 6 min.
The data was given as “average±standard deviation” (x±s). One-way analysis of variance (ANOVA) was used for data difference statistics. Differences among the groups were determined by P<0.05.

[3] = 30 mg/kg gavage, two successive weeks

## COc1ccc(C(CN(C)C)C2(O)CCCCC2)cc1 (stereo not shown) [Venlafaxine, Venlafaxine HCl, reference compound]
Male ICR mice [1]; [3]
  effect on length of time that the mice stopped swimming vs blank control: markedly shortened
Male ICR mice [1]; mice, gavage once a day for 14 days, 30 mg/kg, n = 10, x ± s
  Duration without Movement within the Last 4 min of the Whole 6 min: 173.6 ± 31.4 s
Male ICR mice [2]; [3]
  effect on length of time that the tail-suspended mice stopped moving vs blank control: markedly shortened
Male ICR mice [2]; mice tail suspension, gavage 14 days, 30 mg/kg, n = 10, x ± s
  Duration without Move within 6 min: 180.6 ± 661.8 s
